Patent US10800782B2, “Inhibitors of cellular metabolic processes” (Agios Pharmaceuticals, Inc., priority 2016, dated 2020)

These compounds were tested against T1, MAT2A (Homo sapiens, UniProt P31153) (assay: MAT2A biochemical assay (colorimetric inorganic phosphate detection, PiColorLock)). Details: recombinant His6-tagged MAT2A 1 μg/ml; 60 minutes preincubation at 25° C.; L-Met 80 μM, ATP 100 μM; 60 minutes reaction; read at 623 nm; read-out: MAT2A Inhibition Score.
T1 construct: His6; made in house; host or cells: SF9 insect cells
Summary of the method: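 Colorimetric malachite green readout of phosphate released when MAT2A turns over L-Met and ATP, after 60 min at room temperature. Enzyme: SF9-expressed His6-tagged MAT2A at 1 μg/ml. Buffer: Tris pH 8.0, 50 mM KCl, 15 mM MgCl2, 300 uM EDTA, 0.005% BSA. Compounds tested as ten-point three-fold dilutions.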

T1 sequence (P31153 whole entry): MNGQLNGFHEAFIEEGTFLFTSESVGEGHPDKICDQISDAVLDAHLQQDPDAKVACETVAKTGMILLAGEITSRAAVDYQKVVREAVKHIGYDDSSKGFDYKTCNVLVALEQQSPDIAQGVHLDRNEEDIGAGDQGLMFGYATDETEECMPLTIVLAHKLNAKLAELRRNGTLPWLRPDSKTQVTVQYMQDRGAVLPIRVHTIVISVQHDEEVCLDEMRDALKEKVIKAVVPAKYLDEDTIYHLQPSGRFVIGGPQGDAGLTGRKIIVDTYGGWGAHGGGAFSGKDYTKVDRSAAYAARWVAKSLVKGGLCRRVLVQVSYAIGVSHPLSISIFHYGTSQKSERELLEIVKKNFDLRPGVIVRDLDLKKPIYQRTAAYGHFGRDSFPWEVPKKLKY

SMILES | IC50
Cc1c(-c2ccc(O)cc2)c(=O)n2nc(-c3ccccc3)c(-c3cccs3)c2n1C [Compound 271, 6-(4-hydroxyphenyl)-4,5-dimethyl-2-phenyl-3-(thiophen-2-yl)pyrazolo[1,5-a]pyrimidin-7(4H)-one] | < 100 nM
COc1ccc(-c2c(CO)n(C)c3c(-c4ccccc4)c(-c4ccccc4)nn3c2=O)cc1 [Compound 249, 5-(hydroxymethyl)-6-(4-methoxyphenyl)-4-methyl-2,3-diphenylpyrazolo[1,5-a]pyrimidin-7(4H)-one] | < 100 nM
COc1ccc(-c2c(Nc3ccccn3)[nH]c3c(-c4ccccc4F)c(-c4ccccc4)nn3c2=O)cc1 [Compound 179, 3-(2-fluorophenyl)-6-(4-methoxyphenyl)-2-phenyl-5-(pyridin-2-ylamino)pyrazolo[1,5-a]pyrimidin-7(4H)-one] | < 100 nM
COc1ccc(-c2c(Nc3ncns3)[nH]c3c(-c4ccccc4)c(-c4ccccc4)nn3c2=O)cc1 [Compound 147, 5-((1,2,4-thiadiazol-5-yl)amino)-6-(4-methoxyphenyl)-2,3-diphenylpyrazolo[1,5-a]pyrimidin-7(4H)-one] | < 100 nM
NCc1[nH]c2c(C3=CCCCC3)c(-c3ccccc3)nn2c(=O)c1-c1ccc2c(c1)OCCO2 [Compound 226, 5-(aminomethyl)-3-(cyclohex-1-en-1-yl)-6-(2,3-dihydrobenzo[b][1,4]dioxin-6-yl)-2-phenylpyrazolo[1,5-a]pyrimidin-7(4H)-one] | < 100 nM
COc1ccc(-c2c(Nc3cncc(C#N)n3)[nH]c3c(-c4ccccc4)c(-c4ccccc4)nn3c2=O)cc1 [Compound 131, 6-(6-(4-methoxyphenyl)-7-oxo-2,3-diphenyl-4,7-dihydropyrazolo[1,5-a]pyrimidin-5-ylamino)pyrazine-2-carbonitrile] | < 100 nM
COc1ccc(-c2c(Nc3nc(OC)ns3)[nH]c3c(-c4ccccc4)c(-c4ccccc4)nn3c2=O)cc1 [Compound 148, 5-((3-methoxy-1,2,4-thiadiazol-5-yl)amino)-6-(4-methoxyphenyl)-2,3-diphenylpyrazolo[1,5-a]pyrimidin-7(4H)-one] | < 100 nM
COc1ccc(-c2c(C)[nH]c3c(N4CCCCC4)c(-c4ccccc4)nn3c2=O)cn1 [Compound 358, 6-(6-methoxypyridin-3-yl)-5-methyl-2-phenyl-3-(piperidin-1-yl)pyrazolo[1,5-a]pyrimidin-7(4H)-one] | < 100 nM
COc1ccc(-c2c(Nc3nccs3)[nH]c3c(-c4ccccc4)c(-c4ccccc4)nn3c2=O)cc1 [Compound 137, 6-(4-methoxyphenyl)-2,3-diphenyl-5-(thiazol-2-ylamino)pyrazolo[1,5-a]pyrimidin-7(4H)-one] | < 100 nM
O=C(CO)Nc1[nH]c2c(-c3ccccc3)c(-c3ccccc3)nn2c(=O)c1-c1ccc2ncccc2c1 [Compound 173, 2-hydroxy-N-(7-oxo-2,3-diphenyl-6-(quinolin-6-yl)-4,7-dihydropyrazolo[1,5-a]pyrimidin-5-yl)acetamide] | < 100 nM

Further lines, results first:

IC50 | SMILES
< 100 nM | Cc1[nH]c2c(-c3ccccc3)c(-c3ccccc3)nn2c(=O)c1-c1ccc(O)c(OCCO)c1 [Compound 261, 6-(4-hydroxy-3-(2-hydroxyethoxy)phenyl)-5-methyl-2,3-diphenylpyrazolo[1,5-a]pyrimidin-7(4H)-one]
100 to 1000 nM | Cc1[nH]c2c(N3CCCCC3)c(-c3ccccc3)nn2c(=O)c1C1CCCC1 [Compound 300, 6-cyclopentyl-5-methyl-2-phenyl-3-(piperidin-1-yl)pyrazolo[1,5-a]pyrimidin-7(4H)-one]
< 100 nM | Cc1[nH]c2c(C3=CCCCC3)c(-c3ccccc3)nn2c(=O)c1-c1ccc(O)cc1 [Compound 240, 3-(cyclohex-1-en-1-yl)-6-(4-hydroxyphenyl)-5-methyl-2-phenylpyrazolo[1,5-a]pyrimidin-7(4H)-one]
100 to 1000 nM | CCC(=O)Nc1[nH]c2c(-c3ccccc3)c(-c3ccccc3)nn2c(=O)c1-c1ccc2ncccc2c1 [Compound 327, N-(7-oxo-2,3-diphenyl-6-(quinolin-6-yl)-4,7-dihydropyrazolo[1,5-a]pyrimidin-5-yl)propionamide]
